Laboratory results as given in publication PMC5483439, “The Effect of Pungent and Tingling Compounds from Piper nigrum L. on Background K^+ Currents” (Frontiers in Pharmacology, 2017).

Experiments:
mKCNK3 = target: T1, mKCNK3 (Mus musculus, UniProt O35111); experiment: Two-electrode voltage clamp on Xenopus oocytes expressing mKCNK3; format: cell-based; settings: 1–1000 μM
T1 construct: expressed in transfected cells; host or cells: Xenopus laevis oocytes injected with cRNA (plasmid pSGEM)
Source text: (§1) Human KCNK3 (TASK-1, K2P3.1) cloned into the expression vector pIRES-CD8 was a gift from Dr. Fabrice Duprat (Institut National de la Santé et de la Recherche Médicale, Antipolis, France). Human KCNK18 (hTRESK, K2P18.1), cloned into the plasmid pEXO, was a gift from Dr. P. Enyedi (Semmelweis University, Budapest, Hungary). These plasmids were linearized with the restriction enzymes BamHI and XbaI, respectively, and then used as templates for in vitro transcription. Human KCNK9 (hTASK-3, K2P9.1) cloned into the expression vector pCR4-TOPO, was purchased from Imagenes (Berlin, Germany). The plasmid was linearized with the restriction enzyme SspI, to generate a linear cDNA template for in vitro transcription. mKCNK3 was isolated from mouse heart by standard procedures and inserted into pSGEM. mKCNK9 and mKCNK18 were kindly provided by Dr. D. Bayliss (University of Virginia, Charlottesville, VA, United States) and Prof. Dr. P. Enyedi (Semmelweis University, Budapest, Hungary). Both channels were subcloned into pSGEM. The pSGEM plasmids were subsequently linearized with the restriction enzyme PacI. The capped RNAs were synthesized in the presence of the capping analog m7G(5′)ppp(5′)G using the AmpliCap-T7 Message Maker kit (Epicentre, Madison, WI, United States). The cRNA was dissolved in nuclease-free water to obtain a final concentration of 100 ng/μL. […]

mKCNK9 = target: T2, mKCNK9 (Mus musculus, UniProt Q3LS21); experiment: Two-electrode voltage clamp on Xenopus oocytes expressing mKCNK9; format: cell-based; settings: 1–1000 μM
T2 construct: expressed in transfected cells; host or cells: Xenopus laevis oocytes injected with cRNA (subcloned into pSGEM; clone from Dr. D. Bayliss)
T2 sequence (Q3LS21 whole entry): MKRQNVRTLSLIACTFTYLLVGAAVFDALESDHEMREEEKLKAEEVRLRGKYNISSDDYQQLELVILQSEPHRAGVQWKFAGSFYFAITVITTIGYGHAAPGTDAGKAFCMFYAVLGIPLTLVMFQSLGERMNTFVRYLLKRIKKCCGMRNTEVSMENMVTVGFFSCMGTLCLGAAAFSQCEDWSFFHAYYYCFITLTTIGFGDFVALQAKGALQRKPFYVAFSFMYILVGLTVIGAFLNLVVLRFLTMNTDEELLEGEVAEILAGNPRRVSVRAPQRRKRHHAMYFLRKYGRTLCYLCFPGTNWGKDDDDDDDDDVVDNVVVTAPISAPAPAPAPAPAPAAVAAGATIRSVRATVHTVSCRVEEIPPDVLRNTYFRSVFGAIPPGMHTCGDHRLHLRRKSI
Source text: as §1

hKCNK3 = target: T3, hKCNK3 (Homo sapiens, UniProt O14649); set-up: method as in Beltrán et al., 2013; settings: hKCNK3 in Xenopus oocytes; ref Beltrán et al., 2013; cited from earlier work
T3 construct: expressed in transfected cells; host or cells: Xenopus laevis oocytes injected with cRNA (plasmid pIRES-CD8, gift of Dr. Fabrice Duprat)
T3 sequence (O14649 whole entry): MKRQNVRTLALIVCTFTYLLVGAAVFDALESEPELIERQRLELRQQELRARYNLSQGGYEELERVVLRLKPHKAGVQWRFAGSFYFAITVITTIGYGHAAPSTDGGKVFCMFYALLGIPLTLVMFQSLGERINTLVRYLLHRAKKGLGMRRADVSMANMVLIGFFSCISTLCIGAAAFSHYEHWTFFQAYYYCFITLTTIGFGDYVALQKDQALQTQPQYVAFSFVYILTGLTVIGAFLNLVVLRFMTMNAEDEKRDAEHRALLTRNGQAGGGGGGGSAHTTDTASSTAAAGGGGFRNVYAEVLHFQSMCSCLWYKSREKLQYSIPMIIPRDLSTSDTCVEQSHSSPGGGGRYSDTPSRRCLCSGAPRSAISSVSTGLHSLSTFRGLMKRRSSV

mKCNK18 = tested on: T4, mKCNK18; experiment: Two-electrode voltage clamp on Xenopus oocytes expressing mKCNK18; format: cell-based, mouse; settings: 1–1000 μM
T4 construct: expressed in transfected cells; host or cells: Xenopus laevis oocytes injected with cRNA (subcloned into pSGEM; clone from Prof; Dr. P. Enyedi)
Source text: as §1

tongue surface = tested on: tongue surface; set-up: method as in Dawid et al., 2012; settings: human, filter paper on tongue; ref Dawid et al., 2012; cited from earlier work

T1 sequence (O35111 whole entry): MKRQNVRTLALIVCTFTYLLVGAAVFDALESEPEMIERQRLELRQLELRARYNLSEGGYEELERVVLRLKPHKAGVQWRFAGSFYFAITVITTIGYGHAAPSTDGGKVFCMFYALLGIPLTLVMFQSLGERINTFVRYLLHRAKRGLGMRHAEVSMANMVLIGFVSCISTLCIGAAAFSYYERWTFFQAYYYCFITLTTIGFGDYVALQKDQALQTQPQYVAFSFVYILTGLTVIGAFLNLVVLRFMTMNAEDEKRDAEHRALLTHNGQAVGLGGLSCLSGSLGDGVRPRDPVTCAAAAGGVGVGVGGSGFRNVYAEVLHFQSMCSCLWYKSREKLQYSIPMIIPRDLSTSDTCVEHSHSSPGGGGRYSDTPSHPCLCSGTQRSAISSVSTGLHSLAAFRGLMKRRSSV

## O=C(/C=C/C=C/c1ccc2c(c1)OCO2)N1CCCCC1 [1a, piperine]
mKCNK3
  IC50: 30 ± 2.8 µM
mKCNK9
  IC50: 214 ± 60.1 µM
hKCNK3
  % of basal activity after saturating concentrations: 46 ± 10%
mKCNK18
  effect on mKCNK18: much less affected
Tongue surface
  pungent threshold concentration: 3.0 nmol/cm^2
